“Also recorded” adds a separate entry of the source.
Columns and labels:
[1] = tested on: patients with histologically proven NASH; experiment: Multicenter randomized double-blind placebo-controlled clinical study of 28-35 mg/kg/day UDCA for treating NASH; assay type: in vivo, human; conditions: for Normalization ALAT: percent pts with normalized ALAT at 12 months; for Normalization ASAT: percent pts with normalized ASAT at 12 months
Description: A multicenter randomized double-blind placebo-controlled study was conducted to examine the efficacy and tolerability of 28-35 mg/kg/day UDCA in patients with histologically proven NASH, ALAT and/or ASAT greater than 50 IU/L. A total of 120 patients were planned to receive either UDCA or placebo for a period of 12 months. Treatment was administered with meals. During the study, liver biochemistry, tolerability and side effects were monitored regularly. During the study, overweight and obese patients were encouraged to lose weight by following a hypocaloric diet and to maintain a certain level of physical activity. Drug treatments taken by patients for associated medical conditions were allowed. At the end of the 12th month, patients underwent an end of study evaluation and study treatments were stopped.
Inclusion criteria: age of patients higher than 18 years; liver biopsy compatible with NASH: presence of steatosis >20% associated with hepatocyte ballooning and/or hepatic lobule necrosis during the last 18 months; ALAT or ASAT levels >50 IU/L at the screening visit (with at least 3 elevated transaminase levels in the last 12 months)
Exclusion criteria: hepatic biopsy done before the last 18 months; no more than one normal value of transaminases during the last 12 months; patient was treated by UDCA during the last 12 months; loss of weight of more than 15% between the time of the hepatic biopsy and the screening; alcohol consumption higher than 20 g/day for women or higher than 30 g/day for men; presence of other causes of hepatitis such as chronic hepatitis B or C, increased serum ferritin associated with homozygosity for the C282Y mutation, primary biliary cirrhosis, primary sclerosing cholangitis, well documented autoimmune hepatitis (specific autoantibody, hpergammaglobulinaemia, histology-compatible), alpha-1 anti-trypsin deficiency, Wilson's disease, HIV infection; secondary causes of NASH: long term amiodarone-induced NASH, corticotherapy, obesity surgery within the last 2 years, Tamoxifen® treatment; Child's B or Child's C grade cirrhosis; presence of liver carcinoma; currently treated or treated during the past three years of hepatic biopsy with rosilitazone or pioglitazone; treatment with vitamin E during the past six months before screening; pregnant or breastfeeding women; unavailable histology slides for reading by the central laboratory.
Discontinuation criteria: Subjects were free to discontinue the study at any time for any or for no reason, and without prejudice to further treatment. Patients who withdrew subsequent to the pre-study evaluations but before receiving any study medication were not considered dropouts and were not included in the database. Patients who were included in the study and received at least one dose of study medication were included in the database and considered part of the safety population. Patients who were included in the study and received a dose of study medication and for whom at least one post-baseline evaluation was available were analyzed as part of the Intent-to-Treat (ITT) population. Patients from the ITT population who completed the study without any major protocol violations were analyzed as part of the Per Protocol (PP) population.
Main Endpoints: The primary endpoint was percent change in ALAT at 12 months vs. baseline. The secondary endpoints included: percent change in ASAT at 12 months vs. baseline; percent change Gamma-GT at 12 months vs. baseline; percent pts with normalized ALAT at 12 months; percent pts with normalized ASAT at 12 months; change in fibrosis index (FibroTest); change in inflammation index (Actitest); change in metabolic syndrome markers; and safety.
FibroTest is a non-invasive blood test that provides a quantitative estimate of liver fibrosis and can be used to predict advanced fibrosis. ActiTest is a non-invasive blood test that is used to assess the activity of liver disease by measuring the degree of necrosis and inflammation. […]

[2] = tested on: patients with NASH; conditions: two years, 13-15 mg/kg/day; cited from earlier work
[3] = tested on: NASH patients; conditions: one year, 13-15 mg/kg/day; cited from earlier work
[4] = tested on: patients with NASH; conditions: 15 mg/kg/day; cited from earlier work
[5] = tested on: adult patients with PSC; conditions: cited from earlier work
[6] = cited from earlier work
[7] = 28-35 mg/kg/day UDCA in NASH patients
[8] = mean change at 12 months vs. baseline, ITT, 30 mg/kg/day
[9] = by the end of the study, n=76, 28-30 mg/kg/day

C[C@H](CCC(=O)O)[C@H]1CC[C@H]2[C@@H]3[C@@H](O)C[C@@H]4C[C@H](O)CC[C@]4(C)[C@H]3CC[C@]12C [UDCA, 3α, 7β-dihydroxy-5β-cholan-24-oic acid]
Asthenia and RUQP [1, 7]: symptomatic improvement | Safety [1, 7]: without any significant safety concerns | ActiTest (effect on liver inflammation) change vs. baseline, Mean ([1]; ITT, at 6 months): −31.41% | FibroTest (effect on fibrosis) change vs. baseline, Mean ([1]; ITT, at 6 months): −9.15% | ActiTest (effect on liver inflammation) change vs. baseline, Mean ([1]; ITT, at 12 months): −30.97% | FibroTest (effect on fibrosis) change vs. baseline, Mean ([1]; ITT, at 12 months): −8.11% | ActiTest (effect on liver inflammation) change vs. baseline, Mean ([1]; PP, at 6 months): −31.23% | FibroTest (effect on fibrosis) change vs. baseline, Mean ([1]; PP, at 6 months): −9.68% | ActiTest (effect on liver inflammation) change vs. baseline, Mean ([1]; PP, at 12 months): −27.33% | FibroTest (effect on fibrosis) change vs. baseline, Mean ([1]; PP, at 12 months): −5.40% | GI symptoms (diarrhea, abdominal pain, motility problems) frequency versus placebo group ([1]; UDCA treatment group vs placebo group): −3 × | Glycemia ([1]; UDCA treatment group, increased in placebo group (p=0.023)): remained stable | HbA1c versus placebo ([1]; at 6 and 12 months (p<0.05)): lower | Insulinemia versus placebo ([1]; at 12 months (p=0.038)): lower | Fibrosis levels compared to placebo group ([1]; both ITT and PP populations): significant improvement | Liver inflammation levels compared to placebo group ([1]; both ITT and PP populations): significant improvement | Mild diarrhea, abdominal pain, and gastrointestinal motility disorders versus placebo group ([1]; human, in vivo): more | Time of maximum effect, percent change from baseline ALAT ([1]; human, in vivo): 3 months | Time of maximum effect, percent change from baseline ASAT ([1]; human, in vivo): 3 months | Time of maximum effect, percent change from baseline in Gamma-GT ([1]; human, in vivo): 6 months | Δ % ALAT (SD) [1, 8]: −28±55% | Δ % ASAT (SD) [1, 8]: −8±59% | Δ % Gamma-GT (SD) [1, 8]: −51±28% | Individual effect on fibrosis: Fibrosis Decreased ([1]; percent of patients): 35.7% | Individual effect on fibrosis: Fibrosis Increased ([1]; percent of patients): 8.9% | Individual effect on fibrosis: Fibrosis Stable ([1]; percent of patients): 55.4% | Normalization ALAT ([1]; ITT): 25% | Normalization ALAT ([1]; PPP): 29% | Normalization ASAT ([1]; ITT): 32% | Normalization ASAT ([1]; PPP): 36% | Efficacy, UDCA treatment group versus placebo group [2]: did not show any differences | Fibrosis or inflammation [3]: did not change | Liver enzyme and steatosis levels [3]: improved | ALAT and Gamma-GT levels [4]: significant reduction | Steatosis, necroinflammation, or fibrosis [4]: no improvements | Risk of a primary endpoint versus placebo ([5]; adjusted for baseline stratification characteristics (p=0.011)): 2.2 times | Patients who had reached one of the pre-established clinical endpoints (number) [5, 9]: 28 patients | Patients who had reached one of the pre-established clinical endpoints (percent) [5, 9]: 37% | Amount of decrease of ASAT and AP levels versus placebo ([5]; during therapy (p<0.01)): greater | Adjusted relative risk for death or transplantation ([5]; versus placebo (p=0.029)): 3.3 | Serious adverse events ([5]; vs. 43% placebo, p=0.03): 61% | Solubility in chloroform ([6]; chloroform): slightly soluble | Solubility in ethanol ([6]; ethanol): freely soluble | Solubility in ether ([6]; ether): sparingly soluble | Solubility in glacial acetic acid ([6]; glacial acetic acid): freely soluble | Solubility in intestinal fluids ([6]; intestinal fluids, compared with water): more soluble | Solubility in water ([6]; water): virtually insoluble; also recorded: practically insoluble

— patent publication US20120071451A1, “METHOD OF TREATING NONALCOHOLIC STEATOHEPATITIS WITH ELEVATED DOSES OF URSODEOXYCHOLIC ACID” (Aptalis Pharma Canada Inc., priority 2009, published 2012)
